Data taken from PubChem BioAssay (NCI).
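Dose response: 5 concentrations. Exposure: 48 h. Format: 96-well plates. Endpoint: linear interpolation; highest concentration if not reached. TGI: total growth inhibition.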

Tests used:
Assay in all cases: growth of human tumour cells (NCI), 48 h
HS 578T breast = test system: HS 578T breast
DU-145 prostate = test system: DU-145 prostate
HOP-92 NSCLC = test system: HOP-92 NSCLC
786-0 renal = test system: 786-0 renal
MOLT-4 leukemia = test system: MOLT-4 leukemia
RXF 393 renal = test system: RXF 393 renal
KM12 colon = test system: KM12 colon
SK-MEL-28 melanoma = test system: SK-MEL-28 melanoma
OVCAR-5 ovarian = test system: OVCAR-5 ovarian
MDA-MB-435 = test system: MDA-MB-435
BT-549 breast = test system: BT-549 breast
PC-3 prostate = test system: PC-3 prostate
MCF7 breast = test system: MCF7 breast

Structure (SMILES): COC(=O)C(Cc1ccccc1)C(=O)NC(CNC(=O)OCc1ccccc1)C(=O)OCc1ccccc1 (stereo not given)
- TGI (HS 578T breast): > 100 µM
- TGI (DU-145 prostate): > 100 µM
- TGI (HOP-92 NSCLC): > 72.3 µM
- TGI (786-0 renal): 62.7 µM
- TGI (MOLT-4 leukemia): 43.7 µM
- TGI (RXF 393 renal): 67.3 µM
- TGI (KM12 colon): > 100 µM
- TGI (SK-MEL-28 melanoma): 44 µM
- TGI (OVCAR-5 ovarian): > 100 µM
- TGI (MDA-MB-435): 50 µM
- TGI (BT-549 breast): > 100 µM
- TGI (PC-3 prostate): > 100 µM
- TGI (MCF7 breast): > 100 µM

Structure (SMILES): CC1=CC[C@@]2(C)[C@@H]([C@@H]1C)[C@H]1CC[C@@H]3[C@@]4(C)CC[C@H](O)C(C)(C)[C@@H]4CC[C@@]3(C)[C@]1(C)C[C@@H]2O
- TGI (HS 578T breast): > 74 µM
- TGI (DU-145 prostate): 25.6 µM
- TGI (HOP-92 NSCLC): 53 µM
- TGI (786-0 renal): 42.2 µM
- TGI (MOLT-4 leukemia): > 70.4 µM
- TGI (RXF 393 renal): 28.5 µM
- TGI (KM12 colon): > 74.8 µM
- TGI (SK-MEL-28 melanoma): 13.9 µM
- TGI (OVCAR-5 ovarian): > 78.2 µM
- TGI (MDA-MB-435): 70.2 µM
- TGI (BT-549 breast): > 64.3 µM
- TGI (PC-3 prostate): 40.6 µM
- TGI (MCF7 breast): > 100 µM

Structure (SMILES): Cc1ccc(S(=O)(=O)Oc2coc(CO)cc2=O)cc1
- TGI (HS 578T breast): > 72.7 µM
- TGI (DU-145 prostate): 27.1 µM
- TGI (HOP-92 NSCLC): 39.6 µM
- TGI (786-0 renal): 23.4 µM
- TGI (MOLT-4 leukemia): > 88.5 µM
- TGI (RXF 393 renal): 30 µM
- TGI (KM12 colon): 18.7 µM
- TGI (SK-MEL-28 melanoma): 36.6 µM
- TGI (OVCAR-5 ovarian): 31.8 µM
- TGI (MDA-MB-435): 30.7 µM
- TGI (BT-549 breast): 39.2 µM
- TGI (PC-3 prostate): 38.2 µM
- TGI (MCF7 breast): 22.1 µM

Structure (SMILES): Cn1c(=S)[nH]c2c(Cl)cc(Cl)cc2c1=O
- TGI (HS 578T breast): > 100 µM
- TGI (DU-145 prostate): > 100 µM
- TGI (HOP-92 NSCLC): > 100 µM
- TGI (786-0 renal): > 100 µM
- TGI (MOLT-4 leukemia): > 100 µM
- TGI (RXF 393 renal): > 100 µM
- TGI (KM12 colon): > 100 µM
- TGI (SK-MEL-28 melanoma): > 100 µM
- TGI (OVCAR-5 ovarian): > 100 µM
- TGI (MDA-MB-435): > 100 µM
- TGI (BT-549 breast): > 100 µM
- TGI (PC-3 prostate): > 100 µM
- TGI (MCF7 breast): > 100 µM

Structure (SMILES): COc1c(C(CC(C)C)OC(C)=O)ccc2c1C(=O)OCc1cc(C)cc(O)c1O2 (stereo not given)
- TGI (HS 578T breast): 50.4 µM
- TGI (DU-145 prostate): 25.8 µM
- TGI (HOP-92 NSCLC): 24.5 µM
- TGI (786-0 renal): 29.2 µM
- TGI (MOLT-4 leukemia): > 100 µM
- TGI (RXF 393 renal): 34 µM
- TGI (KM12 colon): 35.4 µM
- TGI (SK-MEL-28 melanoma): 29.4 µM
- TGI (OVCAR-5 ovarian): 28.4 µM
- TGI (MDA-MB-435): 26.6 µM
- TGI (BT-549 breast): 30 µM
- TGI (PC-3 prostate): 21.6 µM
- TGI (MCF7 breast): 25.6 µM
